Experimental data taken from publication PMC11198769, “Enhancement of transcription efficiency by TAR-Tat system increases the functional expression of human olfactory receptors” (PLOS ONE, 2024).
Like-named read-outs stand apart in the source and are kept apart here.

How the values were obtained:
OR1A1 = molecular target: T1, OR1A1 (Homo sapiens, UniProt Q9P1Q5); assay: hOR assay (GloSensor cAMP luciferase), dose-response; format: cell-based; conditions: for EC50: read-out: EC50 value; for top value of OR1A1 dose-response curve: luminescence normalized to a maximum value of 100
T1 construct: Lucy tag (N); FLAG (N); Rho tag (N); expressed in transfected cells; host or cells: Flp-In T-REx-293 cells stably expressing RTP1S, Gαolf and Ric8-b
T1 sequence (Q9P1Q5 1-309): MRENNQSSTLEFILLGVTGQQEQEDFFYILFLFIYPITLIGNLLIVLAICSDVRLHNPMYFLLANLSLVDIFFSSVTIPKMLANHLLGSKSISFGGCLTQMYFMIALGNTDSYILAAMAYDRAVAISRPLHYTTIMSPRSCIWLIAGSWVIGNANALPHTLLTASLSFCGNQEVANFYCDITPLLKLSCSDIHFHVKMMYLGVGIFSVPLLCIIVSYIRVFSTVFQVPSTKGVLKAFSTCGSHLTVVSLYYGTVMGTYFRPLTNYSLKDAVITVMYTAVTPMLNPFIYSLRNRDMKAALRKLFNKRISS
Protocol: (§1) Flp-In T-REx-293 cells stably expressing accessory proteins (RTP1S, Gαolf, and Ric8-b) were established using the Flp-In T-REx system. Accessory proteins-expressing cells were maintained in high-glucose Dulbecco’s modified Eagle medium (Sigma-Aldrich) containing 10% fetal bovine serum (Biowest) and 1% antibiotic–antimycotic (Nacalai tesque) at 37°C with 5% CO2.
(§2) The GloSensor™ Technology (Promega) was used for the luciferase assay of the hOR response. As the negative control, cells that were transfected by the pBApo-CMV neo vector and pHEK293 Ultra Expression Vector I were used as mock cells. hOR/pHEK and hOR/pBApo (50 ng/well) were transfected into the accessory proteins-expressing cell line (40000 cells/well) using Lipofectamine 2000 (Thermo Fisher Scientific) (400 nL/well) along with pGlosensor™-22F cAMP biosensor plasmid (Promega) (50 ng/well) in a 96-well plate. At 28 h posttransfection, the cells were washed with an assay buffer (140 mM NaCl, 10 mM HEPES, 5 mM KCl, 1 mM CaCl2・2H2O, 10 mM D-glucose, pH 7.5) and replaced with the assay buffer (50 μL/well) containing 2% GloSensor cAMP substrate and preincubated for 1 h at 25°C. Then, the assay buffer was added (130 μL/well). After 10 min of equilibration, the luminescence was measured (L0). Odorants diluted in 10% DMSO/assay buffer were treated (20 μL/well). After 9 min, the luminescence was measured (L9min). First, all the L9min values were subtracted by the L0 value (ΔL) and divided by the L0 value (ΔL/L0). The concentration range of the odorants was different for each odorant, but the minimum was 0.01 μM and the maximum was 3 mM. For all hORs, luciferase assays with hOR/pBApo and hOR/pHEK were conducted in the same 96-well plate each time, and luminescence was normalized to a maximum value of 100. Dose–response curve images were graphed using the Graph Pad Prism 9 software (Graph Pad Software).

OR2M3 = molecular target: T2, OR2M3 (Homo sapiens, UniProt Q8NG83); assay: as above; format: cell-based; conditions: OR2M3/pHEK plasmid
T2 construct: Lucy tag (N); expressed in transfected cells; host or cells: Flp-In T-REx-293 cells stably expressing RTP1S, Gαolf and Ric8-b
T2 sequence (Q8NG83 1-312): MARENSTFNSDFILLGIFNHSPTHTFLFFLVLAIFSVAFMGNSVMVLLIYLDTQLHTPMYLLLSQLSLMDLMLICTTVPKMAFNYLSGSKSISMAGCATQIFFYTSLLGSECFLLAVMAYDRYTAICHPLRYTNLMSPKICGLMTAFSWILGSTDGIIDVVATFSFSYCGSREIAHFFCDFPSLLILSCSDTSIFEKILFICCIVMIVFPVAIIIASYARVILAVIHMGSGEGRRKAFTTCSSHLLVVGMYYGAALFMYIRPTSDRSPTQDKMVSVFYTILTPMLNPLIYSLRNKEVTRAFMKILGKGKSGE
Protocol: as §1, §2

response of HiBiT-tagged OR1A1 (OR1A1; OR1A1 with the HiBiT tag (S1 Fig))	EC50 (OR1A1; OR1A1 with the TAR-Tat system (OR1A1/pHEK)) [nM]	EC50 (OR1A1; OR1A1 without the TAR-Tat system (OR1A1/pBApo)) [nM]	top value of OR1A1 dose-response curve (OR1A1; with the TAR-Tat system (OR1A1/pHEK))	top value of OR1A1 dose-response curve (OR1A1; without the TAR-Tat system (OR1A1/pBApo))	EC50 (OR2M3) [nM]	SMILES
a dose-dependent response was detected	905	4400	90.4	53.9	–	C=C(C)[C@H]1CC=C(C)C(=O)C1 [(+)-carvone]
–	–	–	–	–	159	CCC(S)C(C)CO (stereo not drawn) [3-mercapto-2-methyl-1-pentanol]
